For test [1], the system named is BiP mRNA. Nature of the test: SA spraying of tobacco plants, Northern blot of BiP mRNA. In kind it is in vivo, Nicotiana tabacum. The procedure: It has been shown that SA is involved in the induction of PR genes (reviewed by Malamy and Klessig, 1992) and that this signal molecule also induces the expression of ER chaperones (Denecke et al, 1995). We wanted to investigate whether ER chaperone induction is a consequence of the high synthesis rates of PR genes and used BiP as a model system. Tobacco plants were sprayed with SA (5 mM) and the exact timing of the SA-mediated induction of PR-gene PRI was compared to that of BiP. PR1 was chosen as a representative marker for SA-mediated induction of PR genes as its response to SA is faster and more pronounced than that of acidic chitinase, basic chitinase and basic β-1.3 glucanase (Vidal et al, 1997). […] In contrast SA-induced transcription of PR1 starts only after 6-8 hours and continues to accumulate upto 16 hours after treatment. At this time-point, BiP mRNA levels start to decrease again. We have shown previously that PR1 continuous to accumulate until 48 hours after SA treatment using the same experimental system (Vidal et al, 1997). […] BiP protein levels were also shown to increase (FIG. 7B), with a significant increase noticeable after 4-6 hours of induction.
To investigate further similarities and differences in the SA-mediated induction of BiP and PR genes, we tested if the presence of light is required for the induction. The rationale for this experiment was derived from the observation that SA inhibits catalase, resulting in an increase of active oxygen species in the plant, which would then induce PR genes such as PR1 (Chen et al, 1993). Despite the fact that the inhibition of catalase activity alone is not the key route by which PR1 is induced during SA-treatment (Chamnongpol et al, 1996), a cooperative interaction of SA and H2O2 might lead to the strong induction of PR1 (Leon et al, 1995, Chen et al, 1995). […] Tobacco plants were thus sprayed with SA (5 mM) and incubated in the presence and absence of light for 6 and 16 hours. […] The data also confirm that BiP mRNA levels increase transiently and a significant decrease in mRNA levels is detectable after 16 hours of treatment (see also FIG. 7).
We have shown that the SA-induced expression of PR1 is inhibited in a concentration dependent fashion by the presence of Erwinia carotovora culture filtrate containing cell wall-degrading enzymes (Vidal et al, 1997). […] Total RNA was extracted and the expression of chaperones was determined in relation to PR1.
In example 6 we have shown that the UPR-induced BiP gene expression is additive to the cell wall-degrading enzyme (CDE) response. […] After floating of the leaves for 2.5 h on this medium, RNA was extracted and BiP gene expression was analysed by Northern blotting. […]

The subject of test [2] is BiP mRNA. As to the kind of experiment: Tunicamycin treatment of tobacco protoplasts, Northern blot of BiP. In kind it is cell-based, Nicotiana tabacum. To be noted: tunicamycin 20 μg/mL, 2.5 hrs. The procedure:
To compare the CDE- and UPR-mediated induction of BiP, we wanted to test if both stimuli are additive. […] This is not surprising as protoplasts are prepared with CDEs. These protoplasts were then treated with tunicanycin, to superimpose the UPR onto the CDE response. […] The additional ER stress could trap BiP in malfolded protein complexes, thus making it unavailable to promote PR protein synthesis on the rough ER.
Protoplasts RNAs were extracted as described by Jones et al., (1985). Leaves were ground in frozen liquid nitrogen and transferred to NTES buffer (0.1 M NaCl, 10 mM Tris pH 7.5, 1 mM EDTA, 1% SDS). Protoplasts samples were frozen in liquid nitrogen and thawed in NTES buffer. RNA was extracted after adding an equal volume of phenol/chloroform. Ethanol precipitation was carried out after incubation at −20° C. for 16 hours. The pellet was resuspended and RNA was selectively precipitated with LiCl (2M LiCl) for 2 hours on ice. The pellet was washed with 70% ethanol and resuspended in diethyl pyrocarbonate-treated water. Gel blots of total RNA denatured in formamide and formaldehyde were prepared. RNA was blotted onto Hybond-N membrane (Amersham Corp), as described by the manufacturer. […]

We go through two compounds from patent US20060117411A1, “Enhancing plant pathogen resistance via increasing BiP levels” (priority 1998, published 2006).

On to tunicamycin, for which the “BiP transcription in SA-treated leaves floated on MS medium with tunicamycin” value in the test with BiP mRNA [1] (5 mM SA 12 h, then tunicamycin 20 μg/mL 2.5 h) was “further induction”. For the same compound, the “BiP induction on top of the CDE response in protoplasts” value in the test on BiP mRNA [2] was “further induction”.
As to `O=C(O)c1ccccc1O` [SA, Salicylic Acid], the “accumulation of BiP mRNA transcripts during SA-treatment in the absence of light” value with BiP mRNA [1] (SA 5 mM, 6 and 16 hours, dark vs light) is on record as “hardly any reduction”. Besides, in the test on BiP mRNA [1] (sprayed with SA 5 mM), the “time at which BiP mRNA levels reach a plateau” value is 4 h and the “time of treatment after which BiP mRNA levels are induced” value worked out at 2 h.
